Source: patent US20220017516A1, “LOX INHIBITORS” (THE INSTITUTE OF CANCER RESEARCH: ROYAL CANCER HOSPITAL, priority 2018, published 2022)
Where two headings read alike, the source gives them in different places.

Legend:
[1] = molecular target: T1, LOX (Mus musculus, UniProt P28301); test: LOX activity in cysts assay (roGFP2 LOX biosensor in MDCK cysts); assay type: cell-based; settings: for inhibition at 10 µM: read-out: Cyst LOX @ 10 uM (% inhibition)
T1 construct: Full length LOX cDNA was then PCR cloned into pEGFP-N1 (Clonetech), or biosensor vector proGFP2—N1; expressed in transfected cells; host or cells: MDCK cells grown as cysts on Matrigel
T1 sequence (P28301 163-411): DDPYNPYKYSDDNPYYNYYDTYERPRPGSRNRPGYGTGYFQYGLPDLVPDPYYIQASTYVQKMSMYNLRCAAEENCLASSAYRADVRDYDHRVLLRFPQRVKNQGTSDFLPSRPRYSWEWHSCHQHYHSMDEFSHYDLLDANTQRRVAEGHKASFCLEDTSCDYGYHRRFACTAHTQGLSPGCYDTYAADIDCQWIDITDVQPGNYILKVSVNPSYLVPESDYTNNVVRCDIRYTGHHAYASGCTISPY
Protocol: All cell lines used in this study were purchased from American Type Culture Collection (ATCC). Mycoplasma contamination was routinely monitored by PCR. Cells used were not found to be Mycoplasma positive. MDCK cell lines were cultured in Dulbecco's Modified Eagle Medium (DMEM) supplemented with 10% fetal bovine serum (FBS) and 1% Penicillin Streptomycin solution (Pen Strep). For GFP constructs transfection in MDCK cells, lipofectamine 3000 was used according to manufactures protocols. Cells were either selected with G418 (Life Technologies) at 5 mg/ml. All cell culture reagents were purchased from Life Technologies.
To produce MDCK cysts, cells were cultured on Matrigel (Corning) with 2% Matrigel supplemented in DMEM with 10% FBS. Cysts were allowed to form for 10 days before subsequent studies.
Mouse LOX cDNA was purchased from OriGene. Full length LOX cDNA was then PCR cloned into pEGFP-N1 (Clonetech), or biosensor vector proGFP2—N1 (Hanson, 2004) using the following primers, […] (forward primer) and […] (reverse primer). For the insertion into pEGFP-N1 or proGFP2—N1, Nhel and Xhol restriction sites were added to forward and reverse primers accordingly. Mutant LOX constructs were made using QuickChange II site-directed mutagenesis kit (Agilent Technologies) following manufacture's protocol using LOX-GFP as template. To generate, roGFP2 versions of LOX mutant constructs, LOX mutant cDNA was transferred from pEGFP-N1 to proGFP2—N1 using Nhel and Xhol.
All photomicrographs were taken with a Leica TCS SP8 X confocal system. For LOX biosensor imaging, live MDCK cysts were used. The oxidised biosensor was excited using a 405 nm laser, while the reduced biosensor was excited with a 488 nm laser. Emission of the biosensor was recorded at 500 nm-530 nm range using sequential scans. Ratio images were generated following a published protocol {Kardash, 2011 #376}. Note, while the published protocol generates YFP/CFP ratio images, we used it to generate Oxidised/Reduced (roGFP2 ratio) ratio images. The roGFP2 ratio at the basal surface of MDCK cysts was used to indicate LOX inhibition. LOX inhibitors were added 30 min prior to imaging.
For clarity, readout for DMSO treated cysts represents 0% inhibition (no inhibition) and readout for BAPN at 1 mM is used as 100% inhibition (full inhibition).

[2] = molecular target: T2, LOXL3 (Homo sapiens, UniProt P58215); test: LOX isoform activity assay (ROS Glo), LOXL3; assay type: biochemical; settings: 1 h incubation with enzyme
T2 construct: purchased R&D Systems/Bio-techne
T2 sequence (P58215 26-753): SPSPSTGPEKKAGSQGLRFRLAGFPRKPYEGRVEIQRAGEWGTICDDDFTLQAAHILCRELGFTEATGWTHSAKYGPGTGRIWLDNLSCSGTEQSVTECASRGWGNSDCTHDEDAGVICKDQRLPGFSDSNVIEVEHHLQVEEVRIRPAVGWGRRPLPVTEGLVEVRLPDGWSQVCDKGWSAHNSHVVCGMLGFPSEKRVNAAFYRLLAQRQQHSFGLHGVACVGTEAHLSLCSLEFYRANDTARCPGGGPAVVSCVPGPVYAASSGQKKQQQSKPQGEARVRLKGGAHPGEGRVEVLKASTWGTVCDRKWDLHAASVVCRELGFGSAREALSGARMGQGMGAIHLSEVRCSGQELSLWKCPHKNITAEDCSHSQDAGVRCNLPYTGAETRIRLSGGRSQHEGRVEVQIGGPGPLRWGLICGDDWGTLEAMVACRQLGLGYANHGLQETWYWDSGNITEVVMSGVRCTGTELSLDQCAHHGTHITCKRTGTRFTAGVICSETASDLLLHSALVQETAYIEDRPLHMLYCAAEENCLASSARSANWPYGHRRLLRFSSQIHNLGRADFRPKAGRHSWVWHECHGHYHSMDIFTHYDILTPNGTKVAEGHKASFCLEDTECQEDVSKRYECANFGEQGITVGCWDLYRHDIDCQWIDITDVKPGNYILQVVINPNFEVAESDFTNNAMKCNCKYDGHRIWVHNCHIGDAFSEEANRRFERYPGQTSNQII
Protocol: LOX was extracted from pig skin by previously described methods (Shackleton and Hulmes, 1990). LOXL2 and LOXL3 were obtained from R&D Systems/Bio-techne. The Promega ROS Glo assay kit (G8821) was used to assess enzyme activity. Overall, test compound was added to either 384 well assay plates (Greiner) using a Labcyte Echo™ Acoustic Handler or to 96 well plates for a final assay concentration of 100, 30, 10, 3, 1, 0.3, 0.1, 0.03, 0.01 and 0.003 μM final assay concentration. Enzymes were diluted according to specific pre-determined activity in assay buffer (100 mM CHES, pH 9, 0.05% (w/v) pluronic F-127, 0.5% (w/v) BSA, 1 mM MgCl2, 1 M urea, 100 mM NaCl) and added to the plate. For LOXL2, the mixture was incubated for 20 min, 1 h or 20 h; for LOX and LOXL3, incubation time was 1 h. Cadaverine and H2O2 substrate were then added to each well (final assay concentration 19.56 mM and 25 μM respectively) and the plates were incubated for 1.5 h (for LOX) or 1 h (for LOXL2 and LOXL3) at room temperature. Finally, luciferin detection reagent was added and plates were incubated for 20 min at room temperature, protected from light. Luminescence was measured using a BMG LABTECH PHERAstar FS reader and resulting IC50 values were calculated using GraphPad Prism software.

[3] = LOX, 10 uM, DMSO = 0%, BAPN 1 mM = 100% inhibition, inhibitor added 30 min prior to imaging

With `CCOc1ccc(N2C[C@H]3CN(C(=O)CS(=O)(=O)CCN)C[C@@H]2C(C)(C)C3)cc1` [Example 7, 2-((2-aminoethyl)sulfonyl)-1-((1S,5S)-6-(4-ethoxyphenyl)-9,9-dimethyl-3,6-diazabicyclo[3.2.2]nonan-3-yl)ethan-1-one] as the compound, how does the inhibition at 10 µM ([1]; LOX) read?
The inhibition at 10 µM was 79%.

With `NCCS(=O)(=O)CC(=O)N1CCN(c2ccccc2)CC1` [Example 13, 2-((2-Aminoethyl)-sulfonyl)-1-(4-phenylpiperazin-1-yl)ethan-1-one] as the compound, how does the IC50 [2] read?
Its IC50 is 280 nM.

Which inhibition at 10 µM ([1]; LOX) does the source give for `CCOc1ccc(N2C[C@H]3CN(C(=O)NCCS(=O)(=O)CCN)C[C@@H]2C(C)(C)C3)cc1` [Example 38, (1S,5S)—N-(2-((2-aminoethyl)sulfonyl)ethyl)-6-(4-ethoxyphenyl)-9,9-dimethyl-3,6-diazabicyclo[3.2.2]nonane-3-carboxamide] here?
Its inhibition at 10 µM is 70%.

With `CCOc1ccc(N2C[C@@H]3C[C@H]2CN3C(=O)CS(=O)(=O)CCN)cc1` [Example 8, 2-((2-aminoethyl)-sulfonyl)-1-((1S,4S)-5-(4-ethoxyphenyl)-2,5-diazabicyclo-[2.2.1]heptan-2-yl)-ethan-1-one] as the compound, how does the inhibition at 2.5 µM ([1]; LOX, 2.5 uM (stated in cell), DMSO = 0%, BAPN 1 mM = 100% inhibition, read-out: Cyst LOX (% inhibition) @ 2.5 uM) read?
Its inhibition at 2.5 µM is 46%.

What about the IC50 ([1]; MDCK cysts, read-out: Cyst LOX IC50) of the same compound?
The IC50 was 370 nM.

What about the IC50 [2] of the same compound?
Its IC50 is 550 nM.

For `CCOc1ccc(N2C[C@H]3CN(c4ccc(S(=O)(=O)CCN)cc4)C[C@@H]2C(C)(C)C3)cc1` [Example 33, 2-((4-((1R,5S)-6-(4-ethoxyphenyl)-9,9-dimethyl-3,6-diazabicyclo [3.2.2]nonan-3-yl)phenyl)sulfonyl)ethan-1-amine], which inhibition at 10 µM [1, 3] is on record?
Its inhibition at 10 µM is 100%.

For `CCOc1ccc(N2CC3CN(CCS(=O)(=O)CCN)CC3C2)cc1` (centres unmarked) [Example 4, 2-((2-(5-(4-ethoxyphenyl)hexahydropyrolo [3,4-c]pyrrol-2(1H)-yl)ethyl)sulfonyl)ethan-1-amine], which inhibition at 10 µM [1, 3] is on record?
Its inhibition at 10 µM is 100%.
